Source: the Deep4Chem optical property database
Several values for one entry are separate records, joined by “and”; a condition that tells them apart may be missing. Equal values may be shown once.

Assay: solvent given as SMILES

## O=c1c2ccccc2c2nc3cc4c(C#C[Si](C5CCCCC5)(C5CCCCC5)C5CCCCC5)c5cc6nc7c8ccccc8c(=O)c8ccccc8c7nc6cc5c(C#C[Si](C5CCCCC5)(C5CCCCC5)C5CCCCC5)c4cc3nc2c2ccccc12
In ClCCl
  absorption maximum: 731 nm

## N#C/C(=C/Nc1ccc(C#N)cc1)c1nc(-c2ccccc2)cs1
In CC#N
  absorption maximum: 372 nm
In CCO
  absorption maximum: 373 nm
In CN(C)C=O
  absorption maximum: 376 nm
In Cc1ccccc1
  absorption maximum: 377 nm
In ClCCl
  absorption maximum: 375 nm

## COc1ccc2cc(C3=[N+]4C(=Nc5c(-c6ccccc6)cc(-c6ccc7cc(OC)ccc7c6)n5[B-]4(F)F)C(c4ccccc4)=C3)ccc2c1
In ClC(Cl)Cl
  absorption maximum: 706 nm
In ClCCl
  absorption maximum: 706 nm

## CCN(CC)c1ccc2cc3c(cc2c1)C1(c2ccccc2Oc2ccccc21)c1cc2cc(N(CC)CC)ccc2cc1C3=O
In CC#N
  absorption maximum: 452 nm

## COc1ccc(-c2ccc(C(=O)NC(C)(C)C)c3c2ccc2c4ccccc4c4ccccc4c23)cc1
In ClCCl
  absorption maximum: 339 nm

## Cc1cc(C)c(B2c3cc(C(C)(C)C)ccc3-c3cccc4cc(C(C)(C)C)cc2c34)c(C)c1
In C1CCCCC1
  absorption maximum: 409 nm

## COc1cccc(-c2[nH]c(=O)n3c2-c2ccccc2C3=O)c1O
In CC#N
  absorption maximum: 393 nm
In CO
  absorption maximum: 395 nm
In ClCCl
  absorption maximum: 396 nm

## c1ccc(-c2nc(-c3ccc(-c4ccc(-c5ccc(-c6nc(-c7ccccc7)c(-c7ccccc7)o6)cc5)cc4)cc3)oc2-c2ccccc2)cc1
In C1COCCO1
  absorption maximum: 352 nm

## CCN(CC)c1ccc2cc(C#N)c(=O)oc2c1
In ClCCl
  absorption maximum: 428 nm

## FC(F)(F)c1cc2n(n1)[B-]1(c3ccccc3-c3ccccc31)[n+]1ccc3ccccc3c1-2
In C1CCCCC1
  absorption maximum: 373 nm
In Cc1ccccc1
  absorption maximum: 375 nm
In ClCCl
  absorption maximum: 373 nm

## C(S/C=C/c1ccc(/C=C/SC=C2CCCCCCC2)cc1)=C1CCCCCCC1
In ClCCl
  absorption maximum: 355 nm

## CCOC(=O)c1sc(SC)c2c(=O)n(C)nnc12
In C1CCOC1
  absorption maximum: 387.5 nm
In CC#N
  absorption maximum: 388 nm
In CCO
  absorption maximum: 391 nm
In CN(C)C=O
  absorption maximum: 391.5 nm
In CO
  absorption maximum: 391.5 nm
In CS(C)=O
  absorption maximum: 393.5 nm

## C(#Cc1cccs1)C(C#Cc1cccs1)=Cc1ccc(C=C(C#Cc2cccs2)C#Cc2cccs2)cc1
In ClC(Cl)Cl
  absorption maximum: 438 nm

## CCCCn1c2ccc(-c3ccc(C(F)(F)F)cc3)cc2c2ccc3c4cc(-c5ccc(C(F)(F)F)cc5)ccc4n(CCCC)c3c21
In ClC(Cl)Cl
  absorption maximum: 301 nm

## c1cc(-c2c3ccccc3c(-c3ccc4ccccc4c3)c3ccccc23)cc(-n2c3ccccc3c3ccccc32)c1
In ClCCl
  absorption maximum: 376 nm

## Cc1ccc(C#Cc2ccc3ccc4cccc5ccc2c3c45)cc1
In CCCCCC
  absorption maximum: 362 nm
In CCO
  absorption maximum: 362 nm
In CCOC(C)=O
  absorption maximum: 362 nm
In ClCCl
  absorption maximum: 365 nm

## CC(C)(C)c1ccc(-c2cc(-c3ccc(-c4cc(-c5ccc(C(C)(C)C)cc5)c(C(=O)N5CCCCC5)s4)s3)sc2C(=O)N2CCCCC2)cc1
In ClCCl
  absorption maximum: 378 nm

## COc1ccc2c(c1)CCC1=C(C#Cc3ccccc3)O[B-](F)(F)[O+]=C12
In ClCCl
  absorption maximum: 443 nm

## O=c1c2cc(F)c(O)cc2oc2cc(N3CCCCC3)c(F)cc12
In CCO
  absorption maximum: 373 nm

## c1ccc(-c2cc(-c3ccc4ccc5c(-c6ccnc(-c7ccccn7)c6)ccc6ccc3c4c65)ccn2)nc1
In C1CCOC1
  absorption maximum: 362 nm
In CC#N
  absorption maximum: 360 nm
In CCC#N
  absorption maximum: 360 nm
In CCCC#N
  absorption maximum: 360 nm
In CCCCCC
  absorption maximum: 361 nm
In CCCO
  absorption maximum: 361 nm
In CCO
  absorption maximum: 361 nm
In CO
  absorption maximum: 363 nm
In Cc1ccccc1
  absorption maximum: 362 nm

## CC(C)(C)c1ccc2c(c1)c1cc(C(C)(C)C)ccc1n2-c1ccc(-n2c3ccc(C(C)(C)C)cc3c3cc(C(C)(C)C)ccc32)c(C(=O)c2ccncc2)c1
In Cc1ccccc1
  absorption maximum: 418 nm

## Cc1ccc(-c2cc(/C=C/c3ccc(N(c4ccccc4)c4ccccc4)cc3)c(-c3ccc(C)cc3)cc2/C=C/c2ccc(N(c3ccccc3)c3ccccc3)cc2)cc1
In ClCCl
  absorption maximum: 410 nm

## CCC1=C(C)C2=C(c3c4ccccc4c(C)c4ccccc34)c3c(C)c(CC)c(C)n3[B-](F)(F)[N+]2=C1C
In CC#N
  absorption maximum: 527 nm
In CCCCCC
  absorption maximum: 529 nm
In CCO
  absorption maximum: 528 nm
In CN(C)C=O
  absorption maximum: 530 nm
In Cc1ccccc1
  absorption maximum: 532 nm
In ClCCl
  absorption maximum: 531 nm

## Cc1cc(=O)oc2cc3c4ccc(C(C)(C)C)cc4c4cc(C(C)(C)C)ccc4c3cc12
In ClC(Cl)Cl
  absorption maximum: 385 nm

## C1=C(c2ccccc2)S[C@]23C1=C(c1ccccc1)[C@H](c1ccccc12)c1ccccc13
In ClCCl
  absorption maximum: 378 nm

## CC(C)[Si](C#Cc1c2cc3ccccc3cc2c(C#C[Si](C(C)C)(C(C)C)C(C)C)c2nc3c4ccccc4c(=O)c4ccccc4c3nc12)(C(C)C)C(C)C
In ClCCl
  absorption maximum: 615 nm

## CC1(C)c2ccccc2N(c2ccc3c(c2)c2cc(N4c5ccccc5C(C)(C)c5ccccc54)cc4c5ccccc5n3c42)c2ccccc21
In C1CCOC1
  absorption maximum: 367 nm

## CC1=C(c2ccc(N(c3ccccc3)c3ccccc3)cc2)C(C)=[N+]2C1=C(c1c(-c3ccccn3)nc3ccccn13)c1c(C)c(-c3ccc(N(c4ccccc4)c4ccccc4)cc3)c(C)n1[B-]2(F)F
In ClCCl
  absorption maximum: 568 nm

## c1ccc(-c2csc(-c3ccncc3)n2)cc1
In CC#N
  absorption maximum: 370 nm
In CCO
  absorption maximum: 325 nm
In CN(C)C=O
  absorption maximum: 323 nm
In CS(C)=O
  absorption maximum: 325 nm
In ClCCl
  absorption maximum: 376 nm

## C#CCNC1=C2C(C)=CC(C)=[N+]2[B-](F)(F)n2c(C)cc(C)c21
In C1CCCCC1
  absorption maximum: 468.5 nm
In CC(C)=O
  absorption maximum: 453 nm
In CCOC(C)=O
  absorption maximum: 457 nm
In CO
  absorption maximum: 453 nm
In OCC(F)(F)F
  absorption maximum: 450.5 nm

## Cc1ccc(C2=C3C=C(I)C=[N+]3[B-](F)(F)n3cccc32)cc1
In C1CCCCC1
  absorption maximum: 523.5 nm
In CC#N
  absorption maximum: 516.5 nm
In CCO
  absorption maximum: 518 nm
In CCOC(C)=O
  absorption maximum: 517 nm
In CO
  absorption maximum: 516.5 nm
In OCC(F)(F)F
  absorption maximum: 513 nm

## CCCCN(CCCC)c1ccc(C#Cc2cc(C#Cc3ccc(C#N)cc3)c(C#Cc3ccc(N(CCCC)CCCC)cc3)cc2C#Cc2ccc(C#N)cc2)cc1
In ClCCl
  absorption maximum: 454 nm

## CCOC(=O)COc1ccc(C(c2c(C)[nH]c3ccccc23)c2c(C)[nH]c3ccccc23)cc1
In C1CCCCC1
  absorption maximum: 291 nm
In CC#N
  absorption maximum: 290 nm
In CO
  absorption maximum: 290 nm
In O
  absorption maximum: 289 nm

## CCC1=C(C)C2=Cc3cscc3B(O)N2C1=O
In CC#N
  absorption maximum: 350 nm
In CCCCCC
  absorption maximum: 351 nm
In CO
  absorption maximum: 355 nm
In CS(C)=O
  absorption maximum: 352 nm
In ClC(Cl)Cl
  absorption maximum: 355 nm

## Fc1ccc(C#Cc2cc(C#Cc3ccc(F)cc3)c(C#Cc3ccc(F)cc3)c(C#Cc3ccc(F)cc3)c2C#Cc2ccc(F)cc2)cc1
In ClCCl
  absorption maximum: 371 nm

## CCCCCCCCCCCCN1C(=O)c2c(c3ccc4cc(-c5ccc(N(C)C)cc5)c(OC)cc4c3c3c2ccc2cc(-c4ccc(N(C)C)cc4)c(OC)cc23)C1=O
In ClCCl
  absorption maximum: 477 nm

## CC(C)(C)c1ccc2c(c1)c1cc(C(C)(C)C)ccc1n2-c1ccc(N(c2ccc(-c3ccc(-c4ccc(-c5ccc(-c6ccc(-c7ccc(N(c8ccc(-n9c%10ccc(C(C)(C)C)cc%10c%10cc(C(C)(C)C)ccc%109)cc8)c8ccc(-n9c%10ccc(C(C)(C)C)cc%10c%10cc(C(C)(C)C)ccc%109)cc8)cc7)s6)s5)s4)s3)cc2)c2ccc(-n3c4ccc(C(C)(C)C)cc4c4cc(C(C)(C)C)ccc43)cc2)cc1
In ClCCl
  absorption maximum: 450 nm

## C[Si](c1ccc(-c2nc3ccccc3n2-c2ccccc2)cc1)(c1ccc(-c2nc3ccccc3n2-c2ccccc2)cc1)c1ccc(-c2nc3ccccc3n2-c2ccccc2)cc1
In ClCCl
  absorption maximum: 307 nm

## CC(C)(C)c1ccc2c(c1)c1cc(C(C)(C)C)ccc1n2-c1ccc(C#Cc2ccc(C=O)cc2)cc1
In ClCCl
  absorption maximum: 354 nm

## CCCCCCN1C(=O)c2cccc3c(-c4ccc(Cl)s4)ccc(c23)C1=O
In ClC(Cl)Cl
  absorption maximum: 374 nm

## C1=C(c2ccccn2)[Si](c2ccccc2)(c2ccccc2)c2ccccc21
In ClCCl
  absorption maximum: 339 nm

## CCCCCCc1ccc(-n2c3c4cccc(OC)c4nc(-c4ccc(C)cc4)c3c3c2c2c(-c4ccc(C)cc4)nc4c(OC)cccc4c2n3-c2ccc(CCCCCC)cc2)cc1
In ClC(Cl)Cl
  absorption maximum: 315 nm

## CCCCCCCCCCCCNc1cccc2[n+]1[B-](F)(F)n1c(c3cccc4cccc1c43)=N2
In C1CCOC1
  absorption maximum: 498 nm
In CC#N
  absorption maximum: 493 nm
In CCCCCC
  absorption maximum: 496 nm
In Cc1ccccc1
  absorption maximum: 500 nm
In ClCCl
  absorption maximum: 497 nm and 467 nm

## Clc1ccc(N2c3c(sc4ccccc34)Sc3sc4ccccc4c32)cc1
In ClCCl
  absorption maximum: 309 nm

## CN(C)c1ccc(-c2ccc(C#N)s2)s1
In CCO
  absorption maximum: 413 nm

## CCCCCCN1C(=O)c2cccc3cc(/N=C\c4ccc5c(c4)c4ccccc4n5CC)cc(c23)C1=O
In ClC(Cl)Cl
  absorption maximum: 340 nm

## CN1C(=Cc2c([O-])c(=O)/c2=N\C#N)C(C)(C)c2ccccc21
In CCO
  absorption maximum: 436 nm

## COc1cc(/C=C/c2nc3ccccc3o2)c(OC)cc1/C=C/c1nc(C)nc(/C=C/c2cc(OC)c(/C=C/c3nc4ccccc4o3)cc2OC)n1
In C1CCOC1
  absorption maximum: 431 nm
In CC#N
  absorption maximum: 431 nm
In ClC(Cl)Cl
  absorption maximum: 436 nm
In ClCCl
  absorption maximum: 431 nm

## Fc1ccc(-c2cccc3ncc(-c4ccccc4)n23)cc1
In ClCCl
  absorption maximum: 336 nm

## c1ccc2c(c1)Oc1ccccc1N2c1ccc2c(c1)c1ccccc1n1c3ccccc3nc21
In Cc1ccccc1
  absorption maximum: 376 nm

## Nc1cc[nH]c(=S)n1
In CC#N
  absorption maximum: 283 nm
In CCO
  absorption maximum: 280 nm
In CCOC(C)=O
  absorption maximum: 286 nm
In CO
  absorption maximum: 278 nm
In CS(C)=O
  absorption maximum: 285 nm
In O
  absorption maximum: 269 nm

## O=C1C=Cc2cc3ccccc3c(=O)n21
In CC#N
  absorption maximum: 351 nm
In CO
  absorption maximum: 349 nm
In CS(C)=O
  absorption maximum: 357 nm
In ClC(Cl)Cl
  absorption maximum: 353 nm

## CNc1ccc(/C=C/C(=O)OC)cc1
In O
  absorption maximum: 347.28 nm

## CCOC(=O)c1c(C(=O)OC)c(-c2cc3cc(OC)ccc3oc2=O)nn1-c1ccccc1
In ClCCl
  absorption maximum: 351 nm

## F[B-]12OC(c3ccccc3)=Nc3cccc([n+]31)N=C(c1ccccc1)O2
In ClCCl
  absorption maximum: 394 nm

## COc1ccc2c(c1)-c1ccccc1C2=O
In C1CCCCC1
  absorption maximum: 365 nm
In CC#N
  absorption maximum: 379 nm
In CCO
  absorption maximum: 387 nm
